Values after ≈ are worked out from the molar mass of the structure shown. Like-named read-outs stand apart in the source and are kept apart here.
What was measured:
Type in all cases: cell-based, Staphylococcus aureus
[1] = tested on: S. aureus ATCC 25923; test: Antibacterial activity, pre-exposure (planktonic cells and biofilm formation); conditions: for Initial screening result (active = at least 60% inhibition of planktonic cells and biofilm formation): 50 μM, S. aureus; for MIC: Staphylococcus aureus, ATCC25923, read-out: MIC (S. aureus)
Method: (§1) The antimicrobial activity was assessed in a similar way for the initial screening and the dose–response evaluation against different bacterial strains. With the exception of the post-exposure experiment, the compounds were added to the wells along with the bacteria to test the ability of compounds to prevent bacterial growth and biofilm formation (pre-exposure). The compounds were diluted in DMSO and plated directly in 96-well plates before adding the bacterial culture, and plates were incubated for 18 h under aerobic conditions at 37 °C with shaking (220 rpm). The antibacterial activity of the compounds was assessed on planktonic cells and biofilms separately using two different measurements for each: optical density (turbidity) and resazurin reduction (viability) on planktonic cells and resazurin followed by a crystal violet staining assay (total biomass) on biofilms, as described in the following sections.
(§2) The resazurin staining was performed according to the protocol previously optimized with a few modifications.[46] Briefly, the planktonic solution was first transferred into a new 96-well plate and the OD of the planktonic solution was measured using a Varioskan LUX Multimode microplate reader (Thermo Scientific, Vantaa, Finland). Then, 10 μL of a 400 μM resazurin (R7017, Sigma-Aldrich, St. Louis, MO) diluted in phosphate-buffered saline (PBS) (Thermo Fisher Scientific, MA) was added to the wells (for a final resazurin concentration of 20 μM). The plate was incubated in the dark with shaking (220 rpm) for about 3–10 min at room temperature with S. aureus and A. baumannii (until the bacteria controls turned pink) or for 20 min at 37 °C with P. aeruginosa. Fluorescence was measured at λex = 560 nm and λem = 590 nm using the top optics of the Varioskan LUX Multimode microplate reader. The planktonic plate was then discarded. The original challenge plate containing the biofilms was washed once with PBS, and 200 μL of a 20 μM resazurin solution was added to the wells. The plate was incubated in the dark at 37 °C with shaking (220 rpm) for 30 min with S. aureus, 60 min with A. baumannii, and 90 min with P. aeruginosa. Fluorescence was measured as described for the planktonic solution. The biofilms were next treated with crystal violet staining.
(§3) After removing the resazurin solution from the plate, biofilms were fixed with ethanol 100% for 15 min at room temperature. Ethanol was then removed, and the biofilms were left to air-dry completely at RT. Crystal violet, diluted to 1:100 in deionized water from the 2.3% commercial solution (HT90132, Sigma-Aldrich, St. Louis, MO), was added to the wells and, after a 5 min incubation with the dye, the biofilms were washed twice with deionized water and left to air-dry for about 10 min. The dye was solubilized in ethanol 100% for 1 h, and absorbance was measured at 595 nm using a Multiskan Sky microplate spectrophotometer (Thermo Scientific, Vantaa, Finland).

[2] = tested on: S. aureus ATCC 12598; test: Antibacterial activity, pre-exposure; conditions: S. aureus ATCC 12598, pre-exposure, 50 µM, ± SD; for inhibition at 50 µM: Staphylococcus aureus, ATCC12598
Method: as §1, §2, §3

[3] = tested on: S. aureus P2; test: Antibacterial activity, pre-exposure; conditions: S. aureus P2, pre-exposure, 50 µM, ± SD; for inhibition at 50 µM: Staphylococcus aureus
Method: as §1, §2, §3

[4] = read-out: Average inhibition %, biofilms biomass
[5] = read-out: Average inhibition %, planktonic cells turbidity

MIC [1] [µM]	SMILES	also measured
100 (≈ 27.9 µg/mL)	CCCCCCc1ccc(CCC(N)(CO)CO)cc1 [Compound 10, 2-Amino-2-(4-hexylphenethyl)propane-1,3-diol]	Initial screening result (active = at least 60% inhibition of planktonic cells and biofilm formation) [1]: only limited activity against S. aureus biofilms
> 100	NC(CO)(CO)CCc1ccc(Cc2ccccc2)cc1 [Compound 12, 2-Amino-2-(4-benzylphenethyl)propane-1,3-diol]	
> 100	COc1ccc(-c2ccc(CCC(N)(CO)CO)cc2)cc1OC [Compound 13, 2-Amino-2-[2-(3′,4′-dimethoxy-[1,1′-biphenyl]-4-yl)ethyl]propane-1,3-diol]	
> 100	NC(CO)(CO)CCc1ccc(-c2ccc(OCc3ccccc3)cc2)cc1 [Compound 14, 2-Amino-2-[2-[4′-(benzyloxy)-[1,1′-biphenyl]-4-yl]ethyl]propane-1,3-diol]	
> 100	NC(CO)(CO)CCc1ccc(/C=C/Cc2ccccc2)cc1 [Compound 16, (E)-2-Amino-2-[4-(3-phenylprop-1-en-1-yl)phenethyl]propane-1,3-diol]	
> 100	NC(CO)(CO)CCc1ccc(OCc2ccccc2)cc1 [Compound 25, 2-Amino-2-[4-(benzyloxy)phenethyl]propane-1,3-diol]	
> 100	NC(CO)(CO)CCc1ccc(OCc2ccc(C(F)(F)F)cc2)cc1 [Compound 26, 2-Amino-2-[4-[[4-(trifluoromethyl)benzyl]oxy]phenethyl]propane-1,3-diol]	
> 100	NC(CO)(CO)CCc1ccc(OCc2ccc(C(F)(F)F)nc2)cc1 [Compound 27]	
> 100	NC(CO)(CO)CCc1ccc(OCc2ccc3ccc(Cl)cc3n2)cc1 [Compound 28, 2-Amino-2-[4-[(7-chloroquinolin-2-yl)methoxy]phenethyl]propane-1,3-diol]	
> 100	CCCCc1ccc(COc2ccc(CCC(N)(CO)CO)cc2)cc1 [Compound 29, 2-Amino-2-[4-[(4-butylbenzyl)oxy]phenethyl]propane-1,3-diol]	
> 100	NC(CO)(CO)CCc1ccc2ccccc2n1 [Compound 33, 2-Amino-2-[2-(quinolin-2-yl)ethyl]propane-1,3-diol]	
100 (≈ 30.8 µg/mL)	CCCCCCCCc1ccc(CCC(N)(CO)CO)nc1 [Compound 61, 2-Amino-2-[2-(5-octylpyridin-2-yl)ethyl]propane-1,3-diol]	Initial screening result (active = at least 60% inhibition of planktonic cells and biofilm formation) [1]: did not show an inhibitory activity comparable to fingolimod
	CC1(C)S[C@@H]2[C@H](NC(=O)Cc3ccccc3)C(=O)N2[C@H]1C(=O)O [Penicillin-G, reference compound]	Average inhibition %, biofilms viability [2]: 97.5 ± 1.5%; Average inhibition %, planktonic cells viability [2]: 99.7 ± 0%; inhibition at 50 µM [2, 4]: 95.8 ± 1%; inhibition at 50 µM [2, 5]: 99.7%; Average inhibition %, biofilms viability [3]: 9.5 ± 9.8%; Average inhibition %, planktonic cells viability [3]: 14.9 ± 10.3%; inhibition at 50 µM [3, 4]: 17.4 ± 13.2%; inhibition at 50 µM [3, 5]: 12.2 ± 14.5%

— publication PMC8296573, “Synthesis and Biological Evaluation of Fingolimod Derivatives as Antibacterial Agents” (ACS Omega, 2021)
